The text below walks through data of patent US12403184B2, “Compositions and methods for treating neurodegenerative disroders” (priority 2018, dated 2025).

Where no end group is shown, it is not given here.

Experiment [1] relates to activated microglial cells. Put plainly: Iba1 immunofluorescence of microglial activity in HD mouse striatum. The experiment is classed as in vivo. Here is the method: For Iba1 immunofluorescence staining, mice were deeply anesthetized and transcardially perfused with 4% paraformaldehyde in PBS. Frozen brain sections (10 μm, coronal) were permeabilized with 0.1% Triton X-100 in TBS-T buffer followed by blocking with 5% normal goat serum. The brain sections were then incubated with anti-Iba1 antibody (1:500 dilution) for overnight at 4° C., followed by staining with Alex-488 anti-rabbit secondary antibody (1:2000 dilution). Iba1-immunopositive cells in the […] were quantitated by image J software.

In experiment [2] the target is T1, Drp1/ATAD3A (Mus musculus, UniProt Q925I1).
T1 construct: The total lysates of cells or mouse striatum were subject to IP analysis; endogenous in cells; host or cells: HdhQ7 / HdhQ111 mouse striatal cells; wild-type mouse striatal cells exposed to 3-NP
T1 sequence (Q925I1 2-591 limits assumed): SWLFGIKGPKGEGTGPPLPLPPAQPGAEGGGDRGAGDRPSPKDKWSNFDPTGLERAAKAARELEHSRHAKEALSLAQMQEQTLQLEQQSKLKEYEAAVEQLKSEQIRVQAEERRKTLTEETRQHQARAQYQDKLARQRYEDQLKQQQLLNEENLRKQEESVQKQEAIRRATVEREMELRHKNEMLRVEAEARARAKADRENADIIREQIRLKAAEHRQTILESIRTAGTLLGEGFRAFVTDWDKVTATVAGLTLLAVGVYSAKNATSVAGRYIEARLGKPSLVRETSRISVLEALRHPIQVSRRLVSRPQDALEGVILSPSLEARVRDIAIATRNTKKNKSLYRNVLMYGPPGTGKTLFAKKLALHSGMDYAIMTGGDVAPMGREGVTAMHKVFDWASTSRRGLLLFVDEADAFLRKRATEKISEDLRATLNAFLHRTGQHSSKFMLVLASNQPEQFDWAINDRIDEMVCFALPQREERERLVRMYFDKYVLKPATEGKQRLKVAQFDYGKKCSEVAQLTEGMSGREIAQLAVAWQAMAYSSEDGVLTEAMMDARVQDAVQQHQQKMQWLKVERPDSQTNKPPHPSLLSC
Description: Immunoprecipitation of Drp1/ATAD3A binding in striatal extracts of treated HD R6/2 mice. It counts as in vivo. As to conditions: striatal extracts of HD R6/2 mice, 1 mg/kg/day from 6 to 12 weeks. Here is the method:
Cells and mouse brain tissues were harvested and lysed in total lysis buffer ([…], pH 7.9, […], […], 1% Triton X-100, and protease inhibitor cocktail) for 30 mins on ice and centrifuged at 12,000×g for 10 min at 4° C. The supernatants were incubated with the indicated primary antibodies or control IgG (sc-2025 and sc-2027, Santa Cruz Biotechnology) overnight at 4° C., followed by incubation with protein A/G beads (sc-2003, Santa Cruz Biotechnology) for 2 h at 4° C. The immunoprecipitates were washed with lysis buffer three times for a total of 30 min and then subject to WB analysis.
(§1) Systemic peptide treatment in HD mice. All randomization and peptide treatments were prepared by an experimenter not associated with behavioral and neuropathology analysis. Male R6/2 mice (Tg) and their age-matched wild-type littermates (Wt) (6-week-old) were implanted with a 28-day osmotic pump (Alzet, Cupertino CA, Model 2004) containing TAT control peptide or DA1 peptide, which delivered peptides at a rate of 1 mg/kg/day. Male YAC128 mice (Tg) and their age-matched wild-type littermates (WT) were treated with TAT control peptide or DA1 peptide (1 mg/kg/day) by Alzet osmotic pump starting from the age of 3 months. The pump was replaced once every month.

The test system of experiment [3] is HD R6/2 mice. Put plainly: Body weight, survival and behavior in HD R6/2 mice. The experiment is classed as in vivo, mouse. As for the experimental part:
Male R6/2 mice and their wild-type (WT) littermates (5 weeks old) were purchased from Jackson Laboratories [Bar Harbor, ME; B6CBA-TgN (HD exon1) 62; JAX stock number: 006494]. These mice (C57BL/6 and CBA genetic background) are transgenic for the 5′ end of the human HD gene carrying 100-150 glutamine (CAG) repeats.
as §1
Gross locomotor activity was assessed in R6/2 mice and age-matched wild-type littermates at the ages of 12 weeks, and in YAC128 mice and age-matched wildtype littermates at the ages of 2, 3, 6, 9, and 12 months. The mice were placed in the center of an activity chamber (Omnitech Electronics, Inc) and allowed to explore while being tracked by an automated beam system (Vertax, Omnitech Electronics Inc). Distance moved, horizontal and vertical activities were recorded. In R6/2 mice and wildtype littermates, one-hour locomotor activity was conducted. In YAC128 mice and wildtype littermates, 24 h of locomotor activity analysis was performed.
Hindlimb clasping was assessed with the tail suspension test once a week from the ages 8 to 12 weeks in R6/2 mice. The mice were suspended by the tail for 60 s, and the latency for the hindlimbs or all four paws to clasp was recorded using the score system: Clasping over 10 s, score 3; 5-10 s, score 2; 0-5 s, score 1; and 0 s, score 0.
The body weight and survival rate of HD mice and wild-type littermates were recorded throughout the study period.

The test system of experiment [4] is neurons derived from HD patients. Description: Cell death by LDH release in neurons derived from iPS cells. It counts as cell-based, human. Here is the method: iPS cells from a normal subject and a HD patient (carrying 41 CAG repeats) were differentiated into neurons using the protocol from our previous studies. Briefly, the iPS cells were plated onto 6-well plates precoated with 2.5% Matrigel and allowed to reach 90% confluence in feeder-free medium. For the first 10 days, the cells were treated with SB431542 (10 μM; Tocris Bioscience) and Noggin (100 ng/ml) in Neural Media (NM) containing Neurobasal and DMEM (1:1), B-27 supplement minus vitamin A (50×, Invitrogen), N2 supplement (100×, Invitrogen), GlutaMax (Invitrogen, 100×), FGF2 ([…]) and EGF ([…]), and 100 units/ml penicillin and 100 μg/ml streptomycin). For the next 10 days, the cells were treated with human recombinant Sonic hedgehog (SHH, 200 ng/ml), DKK1 (100 ng/ml) and BDNF (20 ng/ml), and 10 μM Y27632 (Sigma) in neuronal differentiation medium containing Neurobasal and DMEM (1:3), B27, N2, GlutaMax, and PS. Cells were then switched to treatment with BDNF (20 ng/ml), ascorbic acid (200 μM, Sigma-Aldrich), cAMP (0.5 mM, Sigma-Aldrich), and Y27632 (10 μM) in neuronal differentiation medium. All growth factors were purchased from PeproTech (Rocky Hill, NJ, USA). […]
Cells were treated as described, and cell death was determined by using Cytotoxicity Detection Kit (LDH) according to protocols recommended by the manufacturer (Roche).

Where [5] appears, read: R6/2 mice at the age of 12 weeks.

As to “YGRKKRRQRRRGGEDKRKT-NH2 [DA1, YGRKKRRQRRR-GG-EDKRKT-NH2]”, the “inflammatory response (Iba1-marked activated microglial cells)” value in experiment [1] (HD R6/2 mouse striatum, 12 weeks old) was “corrected”; in experiment [1] (YAC128 mouse striatum, 6 months old) it was “corrected”. Besides, in experiment [2], the “binding of Drp1/ATAD3A” value is reported as “significantly reduced”. For the same substance, the body weight loss entry in experiment [3] (HD R6/2 mice, 1 mg/kg/day from 6 weeks, vs TAT) is given as “moderately suppressed”. In addition, the survival entry in experiment [3] (HD R6/2 mice, age 6 to 21 weeks, 1 mg/kg/day) is “greatly prolonged”. In addition, the horizontal activity result in experiment [3] (setting [5]) is recorded as “increased”. The total traveled distance entry in experiment [3] (setting [5]) is recorded as “increased”. Also, in experiment [3] (R6/2 mice, four-week observation period), the “severity of clasping behavior” value was “reduced”. Besides, the neuronal survival entry in experiment [4] (cells derived from iPS cells of normal subject) is “no observed effects”. Further, the “cell death (LDH release)” value in experiment [4] (neurons derived from HD patients, BDNF withdrawal for 24 h) is listed as “decreased”.
